Data from patent US7968526B2, “Antisense oligonucleotides directed to ribonucleotide reductase R2 and uses thereof in the treatment of cancer” (Lorus Therapeutics Inc., priority 2003, dated 2011).

Key:
[1] = test system: MDA-MB435-To.1 human Taxol-resistant breast adenocarcinoma cells; test: MDA-MB435-To.1 Taxol-resistant breast adenocarcinoma, fat pad, CB-17 SCID mice, combination with Cisplatin (2.6); assay type: in vivo, human cells in mice; settings: MDA-MB435-To.1 (breast), Taxol resistant, CB-17/SCID; SEQ ID NO:1 10 mg/kg i.v. every other day; Cisplatin 4 mg/kg i.v. weekly x4
Description: BxPC-3 is a gemcitabine resistant call line. […] Gemcitabine was administered intravenously every three days at a dose of 100 mg/kg. Antitumour activities were estimated by the inhibition of tumour volume, which was measured with caliper. Each point represents mean tumour volume calculated from 10 animals per experimental group. […] Hela S3 is a hydroxyurea resistant cell line. […] Hydroxyurea was administered intraperitoneally every day at a dose of 250 mg/kg for 10 days. Cisplatin was administered intravenously once a week for three weeks at a dose of 4 mg/kg. Antitumour activities were estimated by the inhibition of tumour volume, which was measured with caliper. Each point represents mean tumour volume calculated from 10 animals per experimental group. […] Cisplatin was administered intravenously once a week for three weeks at a dose of 4 mg/kg. Taxol was administered intravenously once a week for three weeks at a dose of 10 mg/kg. Antitumour activities were estimated by the inhibition of tumour volume, which was measured with caliper. Each point represents mean tumour volume calculated from 10 animals per experimental group. […] Taxol was administered i.p. once a week at a dose of 10 mg/kg. Antitumour activities were estimated by the inhibition of tumour volume (FIG. 12A), which was measured with calipers. Each point represents mean tumour volume calculated from 10 animals per experimental group. […] Antitumour activities were estimated by the inhibition of tumour volume, which was measured with caliper. Each point represents mean tumour volume calculated from 9-10 animals per experimental group. […] Antitumour activities were estimated by the inhibition of tumour volume, which was measured with caliper. Each point represents mean tumour volume calculated from 10 animals per experimental group. […] Anti-tumour activity was estimated by the inhibition of tumour volume, which was measured with caliper. Each point represents mean tumour volume calculated from 10 animals per experimental group. […] Antitumour activities were estimated by the inhibition of tumour volume, which was measured with caliper. […]

[2] = test system: MDA-MB435-To.1 human Taxol-resistant breast adenocarcinoma cells; test: MDA-MB435-To.1 Taxol-resistant breast adenocarcinoma, fat pad, SCID mice (2.5); assay type: in vivo, human cells in mice; settings: MDA-MB435-To.1 (breast), Taxol resistant, SCID; SEQ ID NO:1 10 mg/kg i.v. every other day 15 times; Taxol 20 mg/kg, Cisplatin 4 mg/kg i.v. weekly x4
Description: (§1) BxPC-3 is a gemcitabine resistant call line. […] Gemcitabine was administered intravenously every three days at a dose of 100 mg/kg. Antitumour activities were estimated by the inhibition of tumour volume, which was measured with caliper. Each point represents mean tumour volume calculated from 10 animals per experimental group. […] Hela S3 is a hydroxyurea resistant cell line. […] Hydroxyurea was administered intraperitoneally every day at a dose of 250 mg/kg for 10 days. Cisplatin was administered intravenously once a week for three weeks at a dose of 4 mg/kg. Antitumour activities were estimated by the inhibition of tumour volume, which was measured with caliper. Each point represents mean tumour volume calculated from 10 animals per experimental group. […] Cisplatin was administered intravenously once a week for three weeks at a dose of 4 mg/kg. Taxol was administered intravenously once a week for three weeks at a dose of 10 mg/kg. Antitumour activities were estimated by the inhibition of tumour volume, which was measured with caliper. Each point represents mean tumour volume calculated from 10 animals per experimental group. […] Taxol was administered i.p. once a week at a dose of 10 mg/kg. Antitumour activities were estimated by the inhibition of tumour volume (FIG. 12A), which was measured with calipers. Each point represents mean tumour volume calculated from 10 animals per experimental group. Animals were sacrificed and tumour weights taken at the end of the study (FIG. 12C). […] Cisplatin was administered intravenously once a week for four weeks at a dose of 4 mg/kg. Taxol was administered intravenously once a week for four weeks at a dose of 20 mg/kg. Antitumour activities were estimated by the inhibition of tumour volume, which was measured with caliper. Each point represents mean tumour volume calculated from 9-10 animals per experimental group. […] Cisplatin was administered intravenously once a week for four weeks at a dose of 4 mg/kg. Antitumour activities were estimated by the inhibition of tumour volume, which was measured with caliper. Each point represents mean tumour volume calculated from 10 animals per experimental group. At the end of the study the animals were sacrificed and tumours weighed. […] Taxol was administered i.p. once a week at a dose of 10 mg/kg. Anti-tumour activity was estimated by the inhibition of tumour volume, which was measured with caliper. Each point represents mean tumour volume calculated from 10 animals per experimental group. In addition animals were sacrificed and tumour weights taken at the end of the study. […] CPT-11 was administered i.p. for 5 days at a dose of 20 mg/kg/day. Antitumour activities were estimated by the inhibition of tumour volume, which was measured with caliper. Each point represents mean tumour volume calculated from 10 animals per experimental group. Tumour weights were measured after animals were sacrificed at the end of the treatment. These cells are not resistant to CPT-11 which was used as a positive control.

[3] = test system: Hela S3 human cervix epitheloid carcinoma cells; test: Hela S3 hydroxyurea resistant cervix carcinoma xenograft in SCID mice; assay type: in vivo, human cells in mice; settings: Hela S3 (cervix), hydroxyurea resistant, SCID; SEQ ID NO:1 10 mg/kg i.v. every other day 6 times; Hydroxyurea 250 mg/kg i.p. daily 10 days; Cisplatin 4 mg/kg i.v. weekly x3
Description: as §1, with “12C). […] The effects of combined treatment were greater than either treatment alone.” for “12C).”

[4] = test system: MDA-CDDP-S4 human in vivo-selected Cisplatin-resistant breast adenocarcinoma cells; test: MDA-CDDP-S4 Cisplatin-resistant breast adenocarcinoma, fat pad, SCID mice (2.3); set-up: species or system human cells in mice
Description: as §1

[5] = test system: SK-OV-3 human ovary adenocarcinoma cells; test: SK-OV-3 ovary tumour xenograft in CD-1 nude mice, combination with taxol or cisplatin (1.8); assay type: in vivo, human cells in mice; settings: SK-OV-3 (ovary), CD-1; SEQ ID NO:1 10 mg/kg i.v. every other day 17 times; Taxol 10 mg/kg weekly; Cisplatin 4 mg/kg weekly
Description: After 52 days the mice were sacrificed and the tumours weighed. […] Mitoxantrone was administered intravenously once at the beginning of the treatments at a dose of 2 mg/kg (FIG. 4A) or once a week for four weeks at a reduced dose of 0.8 mg/kg (FIG. 4B). All treatments were stopped at day 50 (FIG. 4A) or 48 (FIG. 4B), respectively. […] Mitoxantrone was administered intravenously once at the beginning of the treatments at a dose of 2 mg/kg (FIG. 5A) or once a week for four weeks at a reduced dose of 0.8 mg/kg (FIG. 5B). All treatments were stopped at day 42 (FIG. 5A) or 38 (FIG. 5B), respectively. […] A2058 is a metastatic melanoma cell line. […] All treatments were stopped at day 24. […] Taxol was administered intravenously once a week at a dose of 10 mg/kg for three (FIG. 7A) or four weeks (FIG. 7C). Doxorubicin was administered intravenously once a week at a dose of 5 mg/kg for first three weeks (FIG. 7A) or for two weeks (FIG. 7C). All treatments were stopped at day 33 (FIG. 7A) or at day 26 (FIG. 7C), respectively. […] In FIG. 7C, antitumour activities were estimated by the inhibition of tumour volume, which was measured with calipers. Each point represents mean tumour volume calculated from 10 animals per experimental group. […] Taxol was administered intravenously once a week for first three weeks and intraperitoneally once a week for next two weeks at a dose of 10 mg/kg. Cisplatin was administered intravenously once a week for first three weeks and intraperitoneally once a week for next two weeks at a dose of 4 mg/kg. All treatments were stopped at day 40. Antitumour activities were estimated by the inhibition of tumour volume, which was measured with caliper. Each point represents mean tumour volume calculated from 9 animals per experimental group.

[6] = test system: human Burkitt's lymphoma (Raji) cells; test: Survival of SCID mice bearing human Burkitt's lymphoma (Raji); assay type: in vivo, human cells in mice; settings: 10 mg/kg i.v. every second day
Description: Mice with established human Burkitt's lymphoma tumours were treated every second day with either saline or SEQ ID NO:1 for 44 days as described above. The control group mice all died from disease progression by day 20. At day 44, the SEQ ID NO:1 mice continued treatment on a weekly basis until stopping the treatment at day 73.
As an additional test of efficacy SEQ ID NO:1 was administered to SCID mice bearing active Burkitt's lymphoma (FIG. 30). Viable human Burkitt's lymphoma (Raji) cells (5×10^6) collected from subconfluent logarithmically growing cultures were injected i.v. into each animal and disease was allowed to establish for 2 days. SEQ ID NO:1, SEQ ID NO:3 and SEQ ID NO:2, in normal saline were administered by tail vein injection every second day at a dose of 10 mg/kg. At day 40 the treatment schedule was reduced to 10 mg/kg every 3 days. Control animals received saline alone, without oligonucleotide. Survival is presented as a percentage of the starting number of mice over time.

[7] = test system: C8161 human metastatic melanoma cells; test: Experimental metastasis assay, C8161 cells, treatment post tumour cell injection; assay type: in vivo, human cells in mice; settings: C8161 cells i.v. into SCID mice; treatment initiated after 2 days; lungs 5-7 weeks later
Description: C8161 human melanoma cells were seeded into 100 mm tissue culture dishes at a density of 2×10^6 and incubated overnight at 37° C. in α-MEM medium supplemented with 10% FBS. The cells were trypsinized, collected by centrifugation and aliquots were removed from the suspension to determine the cell viability using trypan blue exclusion test. […] Treatment was initiated after 2 days. Estimates of the number of lung nodules were made 5-7 weeks later, after excised lungs from individual mice were stained with picric acid dye solution (75% picric acid, 20% formaldehyde, 5% glacial acetic acid).
Murine R3 fibrosarcoma and human C8161 melanoma cells injected into the tail vein of mice form observable lung nodules 2 weeks post-injection. […] To more accurately reflect the clinical situation, mice were treated with SEQ ID NO:1 post tumour cell injection. C8161 human metastatic melanoma cells were seeded into 100 mm tissue culture dishes at a density of 2×10^6 and incubated overnight at 37° C. in α-MEM medium supplemented with 10% FBS. The cells were trypsinized, collected by centrifugation and aliquots were removed from the suspension to determine the cell viability using trypan blue exclusion test. Approximately 1×10^5 cells suspended in 0.1 ml of PBS were injected into the tail veins of 6-8 week old female SCID mice. Treatment was initiated after 2 days. Estimates of the number of lung nodules were made 5-7 weeks later, after excised lungs from individual mice were stained with picric acid dye solution (75% picric acid, 20% formaldehyde, 5% glacial acetic acid). The results are shown in FIG. 31, bars represent the mean number of nodules per mouse with standard error.

Compound | Tumour weight as % of saline control [1] [%] | Tumour weight as % of saline control [2] [%] | Tumour weight as % of saline control [3] [%] | Tumour weight as % of saline control ([4]; MDA-CDDP-S4 (breast), Cisplatin resistant, SCID, SEQ ID NO:1 10 mg/kg i.v. every other day 9 times, Taxol 10 mg/kg, Cisplatin 4 mg/kg i.v. weekly x3) [%] | Antitumour effect (FIG. 11) ([4]; MDA-CDDP-S4 Cisplatin-resistant, SCID mice, SEQ ID NO:1 10 mg/kg i.v. every other day, Cisplatin 4 mg/kg, Taxol 10 mg/kg i.v. weekly) | tumour volume data as percentage of saline control [5] [%] | Survival of mice ([6]; SCID mice (Example 7, FIG. 30), from day 40 every 3 days) | Survival of mice ([6]; SCID mice, stopped at day 42, sacrificed day 73, untreated all died within 23 days) | Lung nodule formation / anti-metastatic activity (FIG. 31) [7]
N.N.[Cl][Pt][Cl] [Cisplatin, reference compound] | 56 | 69 | 63 | 78 | ineffective against Cisplatin-resistant tumour | 67 |  |  | 
5′-GGCTAAACTCGTCCACCAAG-3′ (listed as DNA, chemistry not given here) [SEQ ID NO:2, reference compound] |  |  |  |  |  |  | neither SEQ ID NO:3 nor SEQ ID NO:2 control ODNs prolonged survival | no observed efficacy | no anti-metastatic activity
